The values below come from patent US10501413B2, “Inhibitors of the Notch transcriptional activation complex and methods for use of the same” (UNIVERSITY OF MIAMI, priority 2015, dated 2019).

The structures appear in SMILES notation.

For one data set, the target named is CSL (Homo sapiens, UniProt Q06330). The data set is described as follows: Surface plasmon resonance binding to CSL. To be noted: SPR, equilibrium response fitted to 1:1 binding model. How it is done: The inhibitors described herein were subjected to surface plasmon resonance (“SPR”) to determine their binding constants to the NICD and CSL components of the NTC. In particular, the target protein (NICD1) was immobilized on the dextran surface of the SPR sensor chip. Through a microflow system, a solution with the inhibitor was injected over the immobilized protein layer. The inhibitor bound to the immobilized protein, which led to an increase in SPR signal, indicating association of the ligand to the target protein. After 45 seconds, buffer solution was injected on the microfluidics that dissociated the bound complex between the ligand and the inhibitor. As the inhibitor dissociated from the ligand, a decrease in SPR signal was observed. The equilibrium dissociation constant KD was determined by plotting the equilibrium response (Req) as a function of the concentration of the ligand, and fitting the data to a 1:1 binding model. The results are listed in […].
Background: Surface plasmon resonance follows binding to a sensor surface in real time, without labels.

Data set [1] deals with Notch target gene transcription. The data set is described as follows: RT-qPCR of Notch target genes in cancer cell lines. Format: cell-based, human. How it is done:
(§1) The effect of inhibitor treatment on Notch-target gene transcription also was investigated (FIGS. 2C and 2D). […] As proof of specificity, transcription of the housekeeping gene, HPRT, was unaltered in treated cells. To test the effects of Notch inhibition on proliferation, a colony formation assay was performed.
(§2) To extend the analysis of tumor cell growth inhibition, several commonly used cancer cell lines were selected to test for sensitivity to Inhibitor No. 1-134-83 (FIGS. 3A and 3B). […] In this analysis, sensitivity to DAPT is taken to indicate specific inhibition of Notch activity. […] Cells that are refractory to DAPT were equally resistant to Inhibitor No. 1-134-83.
RT-PCR analysis was performed using TaqMan probes according to manufacturer's instructions. In particular, 80 ng of RNA equivalent was used per reaction. Gene expression was normalized to the TATA-binding protein (“TBP”) gene. As a control, hypoxanthine phosphoribosyltransferase 1 (“HPRT”) gene expression was also monitored.
(Real-time PCR tracks product formation cycle by cycle.)

In data set [2] the test system is cancer cell lines (OE33, 786-0 and panel). The data set is described as follows: Colony formation assay. The data set is classed as cell-based, human. To be noted: for colony formation: 7 days. How it is done:
as §1, §2
Cells were plated into a 6 well plate at a density of 2000 cells/cm^2. Inhibitor treatment commenced 24 hours post seeding, and the media containing inhibitor was changed every 48 hours thereafter. After 168 hours, cells were fixed with ice cold methanol for 10 minutes, stained for 1 hour with crystal violet, de-stained with water, and allowed to dry.

The test system of data set [3] is OE19 human esophageal adenocarcinoma xenograft. The data set is described as follows: OE19 cell line xenograft. The data set is classed as in vivo. To be noted: nude mouse. The text has this: The effect of the inhibitors of the disclosure on tumor formation in an animal was investigated using a xenograft model. When introduced into the flank of nude mouse 5×10^6 OE19 cells, a human esophageal adenocarcinoma cell line readily forms tumors over the course of 4 weeks. […] In contrast, treatment under the same regimen with a DMSO control had no effect on tumor growth. […] (FIG. 4) Six-week-old NOD-SCID gamma (“NSG”) mice were purchased from Jackson Laboratories and CD-1 Nude mice were purchased from Charles River Laboratories. For the cell line based xenografts assay, 5×10^6 OE19 cells in 200 μl serum-free culture medium were injected subcutaneously per mouse. The mice in the treatment group were injected with 15 mg/kg of Inhibitor No. 1-134-83 daily, and the mice in the control group were injected with the same volume of vehicle (DMSO). Subcutaneous tumor growth was measured once every 4 days using calipers along with body weight. The experiment was discontinued on day 28. PDX cancer models were established, as described in Zhang et al, Establishment of Patient-Derived Xenograft (PDX) Models of Human Breast Cancer, Current Protocols in Mouse Biology, 3:21-29 (2013), in NSG mice. […] Tumor growth was monitored every 4 days and tumor volume was measured by the formula: Volume=(S×S×L)/2, where S and L are the short and long dimensions. […]

Data set [4] deals with esophageal adenocarcinoma PDX tumors. The data set is described as follows: Esophageal adenocarcinoma patient-derived xenograft (PDX). The data set is classed as in vivo, mouse. How it is done:
The effect of the inhibitors of the disclosure on the growth of an established tumor also was investigated using two independent esophageal adenocarcinoma patient-derived xenograft (“PDX”) models. Tumors were established in NSG mice to the size of 250 mm^3 prior to the initiation of treatment. Mice were dosed daily via intraperitoneal (“IP”) injection with either Inhibitor No. 1-134-83 (15 mg/kg) or DAPT (20 mg/kg), and compared to DMSO vehicle control. […] Following 24 days of treatment, tumors were harvested and Notch-target gene transcription was evaluated. […] (FIG. 4) Six-week-old NOD-SCID gamma (“NSG”) mice were purchased from Jackson Laboratories and CD-1 Nude mice were purchased from Charles River Laboratories. For the cell line based xenografts assay, 5×10^6 OE19 cells in 200 μl serum-free culture medium were injected subcutaneously per mouse. The mice in the treatment group were injected with 15 mg/kg of Inhibitor No. 1-134-83 daily, and the mice in the control group were injected with the same volume of vehicle (DMSO). Subcutaneous tumor growth was measured once every 4 days using calipers along with body weight. The experiment was discontinued on day 28. PDX cancer models were established, as described in Zhang et al, Establishment of Patient-Derived Xenograft (PDX) Models of Human Breast Cancer, Current Protocols in Mouse Biology, 3:21-29 (2013), in NSG mice. Briefly, 10 mm^3 pieces of primary EAC29 PDX tumor were transplanted subcutaneously into the flanks of NSG mice using a 13G telescopic needle. When the tumors reached 200 mm^3, the mice were split into two uniform groups for treatment. Compound 1-134-83 (15 mg/kg) and vehicle were administered daily by inraperitoneal (“IP”) injection for 24 days. Tumor growth was monitored every 4 days and tumor volume was measured by the formula: Volume=(S×S×L)/2, where S and L are the short and long dimensions. The xenograft tumors were harvested, weighed and samples were subjected to histological examination and by qPCR.

Chain of CSL (Q06330 whole entry): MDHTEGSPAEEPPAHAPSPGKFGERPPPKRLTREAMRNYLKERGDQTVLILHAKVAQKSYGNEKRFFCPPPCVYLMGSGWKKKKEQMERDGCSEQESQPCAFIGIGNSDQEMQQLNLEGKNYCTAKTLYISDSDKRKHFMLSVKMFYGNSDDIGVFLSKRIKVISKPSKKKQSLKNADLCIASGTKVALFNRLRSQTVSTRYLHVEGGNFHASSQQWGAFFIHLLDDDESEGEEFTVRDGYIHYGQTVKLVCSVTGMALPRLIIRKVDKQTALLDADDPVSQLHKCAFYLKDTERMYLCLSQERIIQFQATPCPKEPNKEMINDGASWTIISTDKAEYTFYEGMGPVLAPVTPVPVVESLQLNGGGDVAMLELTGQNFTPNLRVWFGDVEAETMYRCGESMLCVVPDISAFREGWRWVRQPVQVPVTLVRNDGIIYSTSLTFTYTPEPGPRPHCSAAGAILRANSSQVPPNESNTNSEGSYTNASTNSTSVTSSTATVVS

As a reminder, the Kd is the free concentration of one partner at which half of the binding sites on the other are occupied at equilibrium, for simple one-to-one binding. A lower Kd goes with tighter binding. As for `CCOC(=O)COc1ccc(/C=C2\SC(=S)NC2=O)cc1OC` [1-134-83], on CSL, the Kd amounted to 8 ± 2 µM. The “Notch target gene transcription” value is “dose-dependent decrease” in data set [1] (OE33 and 786-0 cells, qPCR); “do not show a statistically significant reduction” in data set [1] (insensitive cancer cell lines of the panel, 48 hrs); “significantly reduced” in data set [1] (sensitive cancer cell lines of the panel, 48 hrs, DAPT 10, 1-134-83 15 and 25 μM). In data set [1] (OE33 and 786-0 cells, qPCR), the “transcription of control gene HPRT” value was “unaltered”. Further, the colony formation entry in data set [2] (786-0 and OE33 cells) is “dose-dependent reduction”; in data set [2] (insensitive cell lines, high doses) it was “do not show changes in colony formation ability”; in data set [2] (sensitive (Notch dependent) cell lines) it was “dose-dependent decrease in colony formation”. The molecule also yielded an effective concentration in data set [2] (cancer cell lines) of 5 µM. For the same molecule, the cellular toxicity entry in data set [2] (cells refractory to DAPT, dose nearly 10× the effective concentration) is “did not induce any cellular toxicity”. Moreover, in data set [3] (15 mg/kg every day), the “adverse effects on the animal (e.g. change in body weight)” value is on record as “no adverse effects”. In addition, the tumor establishment entry in data set [3] (15 mg/kg every day from second day after transplantation) is on record as “tumor establishment was blocked”. For the same molecule, in data set [4] (NSG mice, 15 mg/kg daily IP), the “weight loss or visible signs of stress” value is “without any significant weight loss or other visible signs of stress”. Moreover, the “growth of established tumor” value in data set [4] (NSG mice, two PDX models, daily IP, 1-134-83 15 mg/kg, DAPT 20 mg/kg) was “significantly stunted growth”. The “decrease in tumor volume by the experimental endpoint” value in data set [4] (PDX tumor, versus vehicle) is given as “three-fold”. In data set [4] (treated PDX tumors, qPCR), the “transcription of control gene (TBP2) in tumors” value is “unaffected”. For the same molecule, the “level of Notch target genes (Hes1, HeyL, Notch3) in tumors” value in data set [4] (tumors harvested after 24 days of treatment, qPCR) is “dramatically reduced”.
